Test [1] in a line: (§1) Inhibition of gamma-secretase-mediated cleavage of human APP expressed in CHO cells assessed as reduction in amyloid beta42 production after 24 hrs by double sandwich ELISA. Type of test: cell-based. In general terms: ELISA stands for enzyme-linked immunosorbent assay.
Test [2] in a line: Inhibition of gamma-secretase-mediated cleavage of human APP expressed in CHO cells assessed as reduction in amyloid beta40 production after 24 hrs by double sandwich ELISA. It is filed as cell-based.
In test [3] the target is Gamma-secretase (Homo sapiens) (UniProt Q96BI3+Q9NZ42+Q8WW43+P49768+Q92542+P49810). Kind of test: (§2) Displacement of [3H](S)-5-chloro-N-(3-ethyl-1-hydroxypentan-2-yl)thiophene-2-sulfonamide from gamma secretase in human SH-SY5Y cells after 1 hr. It is filed as cell-based. In general terms: Loss of bound radioactivity is the signal in a displacement assay; it reports binding, not function.

Test [4] is described as follows: Inhibition of gamma-secretase-mediated mouse notch cleavage expressed in CHOK1 cells assessed as secreted alkaline phosphatase level after 48 hrs by chemiluminescence assay. It is filed as cell-based. The following applies: CHO-K1, 48 h.
The subject of test [5] is CHO. The test is described as §1. Type of test: cell-based.
Test [6] in a line: Selectivity ratio of EC50 for gamma-secretase-mediated mouse notch cleavage to EC50 for gamma-secretase-mediated amyloid beta40 production.
For test [7], the target named is Gamma-secretase. The description is as §2. Type of test: cell-based.
A short description of test [8]: Inhibition of gamma-secretase assessed as increase in beta-C-terminal fragment level after 24 hrs by double sandwich ELISA.
Test [9] is described as follows: Inhibition of gamma-secretase assessed as effect on APP level after 24 hrs by double sandwich ELISA.
The nature of test [10]: Selectivity for gamma-secretase-mediated APP cleavage over gamma-secretase-mediated notch processing.

pEC50, pIC50: −log10 of the molar value. Active and inactive are the calls of the source. The calls are words filed in the database; no cut-off is given here.

The term pEC50 denotes −log10 of the EC50, conventionally taken in molar units. By pIC50 is commonly meant the IC50 on a negative log10 scale, so that one unit is a factor of ten.

`CCC(CC)[C@@H](CO)NS(=O)(=O)c1ccc(Cl)s1` [GSI-136]: the pEC50 in test [1] and in test [2] was 7.54 throughout. For the same compound, in [3], the result was Active.

Regarding `CCC(CC)[C@H](NS(=O)(=O)c1ccc(Cl)s1)c1ccnn1Cc1ccc(O)cc1`, the pEC50 in test [4] is 5.74; in [2], 7.04. Moreover, the outcome in [5], in test [8] and in test [9] was Active. Moreover, in test [6], the Selectivity ratio came to 20. The same compound showed a negative logarithm of the IC50 (pIC50) in [7] of 6.81.

For the compound `CC(C)[C@H](O)C(=O)N[C@@H](C)C(=O)N[C@@H]1C(=O)N(C)CCc2ccccc21`, the outcome in test [3] was Active.

As to `C[C@H](NC(=O)[C@@H](O)c1cc(F)cc(F)c1)C(=O)N[C@@H]1C(=O)N(C)c2ccccc2-c2ccccc21`, the outcome in [3] was Active.

Consider `CCC(CC)[C@H](NS(=O)(=O)c1ccc(Cl)s1)c1ccnn1Cc1ccc(OC)cc1`, for which the pEC50 in [4] is 5.58; in test [2] it was 6.96. Moreover, the result in [5], in test [8] and in test [9] was Active. Besides, the Selectivity ratio in [6] was found to be 24.

On to `C[C@H](NC(=O)Cc1cc(F)cc(F)c1)C(=O)N[C@H](C(=O)OC(C)(C)C)c1ccccc1`, for which the result in test [3] was Active.

On to `Cc1ccc(-n2nccc2[C@@H](NS(=O)(=O)c2ccc(Cl)s2)C(C)C)cc1`, for which the negative-log EC50 (pEC50) in test [4] is 4.90; in test [2], 6.49. The result in test [5], in test [8] and in test [9] was Active. In addition, in [6], the Selectivity ratio is 39.

For `CC(C)[C@H](NS(=O)(=O)c1ccc(Cl)s1)c1ccnn1-c1ccc(O)cc1`, the pEC50 in test [4] is 5.49; in test [2] it was 6.33. Besides, the outcome in [5], in test [8] and in [9] was Active. In addition, the Selectivity ratio in [6] was 6.9.

On to `C[C@H](c1ccc(F)cc1CCCC(=O)O)N(c1cc(F)ccc1F)S(=O)(=O)c1ccc(Cl)cc1`, for which, in test [10], the Selectivity ratio is 15.

Regarding `CCC(CC)[C@H](NS(=O)(=O)c1ccc(Cl)s1)c1ccnn1-c1ccc(OC)cc1`, the values for the pEC50 in [4] and in test [2] were 5.40 and 6.00, respectively. The outcome in [5], in test [8] and in test [9] was Active. In test [6], the Selectivity ratio was 4.

On to `COc1ccc(-n2nccc2[C@@H](NS(=O)(=O)c2ccc(Cl)s2)C(C)C)cc1`, for which the pEC50 in test [4] was 5.21; in test [2], 6.26. The result in test [5], in [8] and in test [9] was Active. The Selectivity ratio in test [6] worked out at 11.

`CC(C)[C@H](NS(=O)(=O)c1ccc(Cl)s1)c1ccnn1-c1ccc(F)cc1`: the outcome in test [5], in [8] and in test [9] was Active. Besides, the pEC50 in test [2] was 6.00.

The record behind these values is ChEMBL document CHEMBL1154043, “Synthesis and structure-activity relationship of a novel series of heterocyclic sulfonamide gamma-secretase inhibitors” (Bioorg Med Chem, 2009).
